Experimental data taken from patent EP0619297B1, “Fungicides for the control of take-all desease of plants” (MONSANTO COMPANY, priority 1993, dated 1994).
Read-outs that look alike come from different tables or passages of the source.

What was measured:
Ggt = experiment: In vivo assay: control of Ggt on wheat in 3-inch pots with infested soil, rated after four weeks;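 on In vivo(ppm) 0.1, percent disease control: rate is mg active ingredient per pot in 3 mL solution not ppm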; parameters: species or system Gaeumannomyces graminis var. tritici; details: Gaeumannomyces graminis, 672 h; for pest or weed control at 0.1 mg/pot: read-out: In vivo(ppm) 0.1, percent disease control; for pest or weed control at 0.5 mg/pot: read-out: In vivo(ppm) 0.5, percent disease control
Experimental: Compounds are tested for control of Ggt on 'Bergen' or 'Anza' varieties of wheat grown in 3-inch square pots containing soil infested with Ggt. The infestation is accomplished by mixing the soil with an inoculum prepared by growing Ggt on 1/4 strength potato dextrose agar (4.875 g potato dextrose agar, 5.0 g Bacto agar, 500 mL distilled, deionized water) in plates and using plugs from the plates to infest sterile oats (400 cc whole oats, 350 mL deionized water, autoclaved). After a one-month incubation period at room temperature, the oats are dried and mixed with the soil at 4% v/v. Four wheat seeds are placed on top of the soil in each pot. […] Five pots are used for each treatment level and the controls, which are untreated, inoculated and non-inoculated pots. After one hour drying time, the seeds are covered with more of the appropriate soil and a layer of vermiculite. The pots are placed in a growth chamber and watered each day. After four weeks, each pot is evaluated for evidence of disease by examination of the seminal roots of each plant under a dissecting microscope. A 0 to 5 rating scale having the following meanings is used: • 0 = no runner hyphae or lesions present • 1 = runner hyphae and a few small lesions present on <10% of root system • 2 = runner hyphae and small lesions present on 10 - 25% of root system • 3 = runner hyphae and lesions present on 25 - 50% of root system • 4 = runner hyphae and many, large, coalescing lesions on >50% of root system • 5 = root system and culm completely inundated with lesions and runner hyphae
From each set of five replicates a high or low score may be eliminated to assure the best representative scores are used to calculate a replicate mean by averaging the remaining scores. This mean score is then compared to the untreated control score and a percent disease control is calculated.

[1] = test system: Gaeumannomyces graminis var. tritici (Ggt); experiment: In vitro assay: mycelial growth on minimal media agar plates (Percent Inhibition; IC50); assay type: cell-based; details: for inhibition at 0.1 ppm: read-out: In vitro(ppm) 0.1, Percent Inhibition; for inhibition at 1 ppm: read-out: In vitro(ppm) 1, Percent Inhibition; for inhibition at 10 ppm: read-out: In vitro(ppm) 10, Percent Inhibition
Experimental: The test compounds (0.25 mL of an appropriate stock solution in acetone) are incorporated into 25 mL minimal media agar [prepared by autoclaving a solution of 17.5 g Czapek Dox broth (Difco), 7.5 g purified agar or Bacto-agar (Difco), and 500 mL distilled/deionized water, and then adding 50 µL of 1 mg/mL thiamine hydrochloride and 50 µL of 1 mg/mL biotin in 5% ethanol] and plates are prepared.
Each plate is inoculated by placing in a triangular shape three 4-mm plugs of Gaeumannomyces graminis var. tritici (Ggt) grown on the minimal media agar described above. The plates are incubated in the dark at 19 - 20 °C for 4 to 5 days. The growth of the fungus is measured as the diameter of the mycelial growth. The result is expressed as Percent Inhibition, calculated as [1 - [(mm growth on treated plate - 4)/(mm growth on control plate - 4)]] x 100.
To determine IC5O values, an in vitro assay was run on each compound at the concentrations of 1, 0.1, 0.01, 0.001, and 0.0001 ppm. The percent inhibition was calculated for each concentration using the equation described in the in vitro assay under the section on Biological Assays. Using the two ordered pairs of (concentration, % inhibition) that bracket 50% inhibition of fungal growth, the concentration for 50% inhibition is calculated from the following equation. IC50 = [(50-I2 )C1 + (I1 -50)C2 ]/(I1 -I2 ), [formula] where C1 = 10C2.

[2] = 0.1 ppm in agar, 19 - 20 °C, 4 to 5 days
[3] = 1 ppm in agar, 19 - 20 °C, 4 to 5 days
[4] = 10 ppm in agar, 19 - 20 °C, 4 to 5 days

## CCNC(=O)c1c([Si](C)(C)C)cc(F)c2ccccc12 [Example 1, N-Ethyl-4-fluoro-2-(trimethylsilyl)-1-naphthalenecarboxamide]
Ggt; soil
  pest or weed control at 0.1 mg/pot: 18%
[1]
  inhibition at 0.1 ppm: 0%
  inhibition at 1 ppm: 79%
  inhibition at 10 ppm: 79%

## CCN(CC)C(=O)c1c([Si](C)(C)CI)ccc2ccccc12 [Example 2, N,N-Diethyl-2-[(iodomethyl)dimethylsilyl]-1-naphthalenecarboxamide]
Ggt; soil
  pest or weed control at 0.1 mg/pot: < 0%
  pest or weed control at 0.5 mg/pot: < 0%
[1]
  inhibition at 0.1 ppm: 15%
  inhibition at 1 ppm: 46%
  inhibition at 10 ppm: 100%

## CCN(CC)C(=O)c1c([Si](C)(C)C)ccc2ccccc12 [Example 3, N,N-Diethyl-2-(trimethylsilyl)-1-naphthalenecarboxamide]
Ggt; soil
  pest or weed control at 0.5 mg/pot: 68%
[1]
  inhibition at 0.1 ppm: 0%
  inhibition at 1 ppm: 0%
  inhibition at 10 ppm: 100%

## CCNC(=O)c1c([Si](C)(C)C)ccc2ccccc12 [Example 4, N-Ethyl-2-(trimethylsilyl)-1-naphthalenecarboxamide]
Ggt; soil
  pest or weed control at 0.1 mg/pot: 85%
  pest or weed control at 0.5 mg/pot: 99%
[1]
  inhibition at 0.1 ppm: 100%
  inhibition at 1 ppm: 100%
  inhibition at 10 ppm: 100%

## CCNC(=O)c1cc2ccccc2cc1[Si](C)(C)C [Example 5, N-Ethyl-3-(trimethylsilyl)-2-naphthalenecarboxamide]
Ggt; soil
  pest or weed control at 0.1 mg/pot: 18%
  pest or weed control at 0.5 mg/pot: 27%
[1]
  inhibition at 0.1 ppm: 0%
  inhibition at 1 ppm: 94%
  inhibition at 10 ppm: 100%

## CCNC(=O)c1c(OC(C)(C)C)ccc2ccccc12 [Example 6, 2-(1,1-Dimethylethoxy)-N-ethyl-1-naphthalenecarboxamide]
Ggt; rate 0.1 (head prints ppm, head line ends mg/pot), wheat, soil infested with Ggt, after four weeks, N = no control
  pest or weed control at 0.1 mg/pot: 53%
[1]; [2]
  inhibition at 0.1 ppm: 21%
[1]; [3]
  inhibition at 1 ppm: 86%
[1]; [4]
  inhibition at 10 ppm: 93%

## CCNC(=O)n1c([Si](C)(C)C)cc2ccccc21 [Example 7, N-Ethyl-2-(trimethylsilyl)-1H-indole-1-carboxamide]
Ggt; soil
  pest or weed control at 0.1 mg/pot: 40%
  pest or weed control at 0.5 mg/pot: 79%
[1]
  inhibition at 0.1 ppm: 88%
  inhibition at 1 ppm: 100%
  inhibition at 10 ppm: 100%

## CCNC(=O)c1c([Si](C)(C)C)sc2ccccc12 [Example 8, N-Ethyl-2-(trimethylsilyl)-benzo[b]thiophene-3-carboxamide]
Ggt; soil
  pest or weed control at 0.1 mg/pot: 43%
  pest or weed control at 0.5 mg/pot: 71%
[1]
  inhibition at 0.1 ppm: 97%
  inhibition at 1 ppm: 93%
  inhibition at 10 ppm: 100%

## CCNC(=O)c1sc2ccccc2c1[Si](C)(C)C [Example 9, N-Ethyl-3-(trimethylsilyl)benzo[b]thiophene-2-carboxamide]
Ggt; soil
  pest or weed control at 0.1 mg/pot: < 0%
[1]
  inhibition at 0.1 ppm: 0%
  inhibition at 1 ppm: 0%
  inhibition at 10 ppm: 88%

## CCNC(=O)c1c([Si](C)(C)C)n(C)c2ccccc12 [Example 10, N-Ethyl-1-Methyl-2-(trimethylsilyl)-1H-indole-3-carboxamide]
[1]
  inhibition at 0.1 ppm: 13%
  inhibition at 1 ppm: 80%
  inhibition at 10 ppm: 85%

## CCNC(=O)c1oc2ccccc2c1[Si](C)(C)C [Example 11, N-Ethyl-3-(trimethylsilyl)-2-benzofurancarboxamide]
[1]
  inhibition at 0.1 ppm: 27%
  inhibition at 1 ppm: 42%
  inhibition at 10 ppm: 82%

## CCNC(=O)C1=C([Si](C)(C)C)S(=O)(=O)c2ccccc21 [Example 15, N-Ethyl-2-(trimethylsilyl)benzo[b]thiophene-3-carboxamide 1,1-dioxide]
[1]
  inhibition at 0.1 ppm: 10%
  inhibition at 1 ppm: 30%
  inhibition at 10 ppm: 83%

## CCNC(=O)c1c(OC2(C)CCCCC2)ccc2ccccc12 [Example 38, N-ethyl 2-[(1-methyl-1-cyclohexyl)oxy]-1-naphthamide]
[1]; [2]
  inhibition at 0.1 ppm: 0%
[1]; [3]
  inhibition at 1 ppm: 43%
[1]; [4]
  inhibition at 10 ppm: 30%

## CCNC(=O)c1c([Si](C)(C)C)ccc2ccoc12 [Example 44, N-ethyl 6-trimethylsilyl benzofuran-7-carboxamide]
[1]
  inhibition at 0.1 ppm: 98%
  inhibition at 1 ppm: 98%
  inhibition at 10 ppm: 100%
